Reference: ChEMBL document CHEMBL4828735, “Discovery of N-((3S,4S)-4-(3,4-Difluorophenyl)piperidin-3-yl)-2-fluoro-4-(1-methyl-1H-pyrazol-5-yl)benzamide (Hu7691), a Potent and Selective Akt Inhibitor That Enables Decrease of Cutaneous Toxicity” (J Med Chem, 2021)

Assays:
[1] = tested on: U-87 MG; assay: Antiproliferative activity against human U-87MG cells assessed as inhibition of cell growth incubated for 72 hrs by SRB method; assay type: functional, cell-based, U-87MG ATCC
[2] = Toxicity in BALB/c nude mouse xenografted with human KHOS cells assessed as change in body weight at 12.5 to 50 mg/kg, ig administered once daily for 22 days; assay type: organism-based; conditions: in vivo, po, 528 h, dose 12.5-50 mg/kg, time 22 day
[3] = tested on: LNCaP; assay: Antiproliferative activity against human LNCaP cells assessed as inhibition of cell growth incubated for 72 hrs by SRB method; assay type: functional, cell-based
[4] = Inhibition of PKA (unknown origin); parameters: species or system Homo sapiens
[5] = tested on: 769-P; assay: Antiproliferative activity against human 769-P cells assessed as inhibition of cell growth incubated for 72 hrs by SRB method; assay type: functional, cell-based
[6] = Toxicity in Sprague-Dawley rat assessed as effect on ovaries at 25 to 75 mg/kg administered daily for 4 weeks by histopathological analysis; assay type: organism-based; conditions: in vivo, 672 h, dose 25-75 mg/kg
[7] = tested on: A549; assay: Antiproliferative activity against human A549 cells assessed as inhibition of cell growth incubated for 72 hrs by SRB method; assay type: functional, cell-based; conditions: A549, 72 h
[8] = tested on: L02; assay: Antiproliferative activity against human HL7702 cells assessed as inhibition of cell growth incubated for 72 hrs by SRB method; assay type: cell-based; conditions: L02, 72 h
[9] = tested on: HaCaT; assay: Antiproliferative activity against human HaCaT cells assessed as inhibition of cell growth incubated for 72 hrs by SRB assay; assay type: cell-based
[10] = tested on: HGC-27; assay: Antiproliferative activity against human HGC-27 cells assessed as inhibition of cell growth incubated for 72 hrs by SRB assay; assay type: functional, cell-based; conditions: HGC-27, 72 h
[11] = Toxicity in Sprague-Dawley rat assessed as appearance of skin lesions at 25 to 75 mg/kg administered daily for 4 weeks; assay type: organism-based; conditions: in vivo, 672 h, dose 25-75 mg/kg
[12] = Microsomal stability in dog liver microsomes assessed as half life at 50 uM preincubated for 5 mins with NADPH followed by compound addition and measured upto 60 mins by LC-MS/MS analysis; assay type: ADME, Canis lupus familiaris, Microsome
[13] = molecular target: Aurora kinase A (Homo sapiens, UniProt O14965); assay: Inhibition of Aurora A (unknown origin)
[14] = Toxicity in Sprague-Dawley rat assessed as effect on stomach at 25 to 75 mg/kg administered daily for 4 weeks by histopathological analysis; assay type: organism-based; conditions: in vivo, 672 h, dose 25-75 mg/kg
[15] = Drug metabolism in po dosed Sprague-Dawley rat urine assessed as M1 metabolite formation measured upto 72 hrs by UPLC-TOF-MS/MS analysis; assay type: ADME, organism-based; conditions: in vivo
[16] = tested on: HaCaT; assay: Induction of apoptosis in human HaCaT cells assessed as cleaved caspase 3 level at 2.25 to 36 uM after 24 hrs by Western blot analysis; assay type: cell-based; conditions: dose 2.25-36 µM
[17] = Toxicity in Sprague-Dawley rat assessed as effect on thymus at 25 to 75 mg/kg administered daily for 4 weeks by histopathological analysis; assay type: organism-based; conditions: in vivo, 672 h, dose 25-75 mg/kg
[18] = tested on: 786-0; assay: Antiproliferative activity against human 786-0 cells assessed as inhibition of cell growth incubated for 72 hrs by SRB assay; assay type: functional, cell-based; conditions: 786-0, 72 h
[19] = Microsomal stability in monkey liver microsomes assessed as half life at 50 uM preincubated for 5 mins with NADPH followed by compound addition and measured upto 60 mins by LC-MS/MS analysis; assay type: ADME, Macaca mulatta, Microsome; conditions: rhesus monkey
[20] = Toxicity in BALB/c nude mouse xenografted with human 786-0 cells assessed as mortality at 12.5 to 50 mg/kg, ig administered once daily for 22 days; assay type: organism-based; conditions: in vivo, po, 528 h, dose 12.5-50 mg/kg, time 22 day
[21] = tested on: MDA-MB-231; assay: Antiproliferative activity against human MDA-MB-231 cells assessed as inhibition of cell growth incubated for 72 hrs by SRB method; assay type: functional, cell-based; conditions: MDA-MB-231, 72 h
[22] = molecular target: Cytochrome P450 2C8 (Homo sapiens, UniProt P10632); assay: Inhibition of CYP2C8 (unknown origin); assay type: ADME
[23] = tested on: SK-OV-3; assay: Antiproliferative activity against human SK-OV-3 cells assessed as inhibition of cell growth incubated for 72 hrs by SRB method; assay type: functional, cell-based; conditions: SK-OV-3, 72 h
[24] = tested on: 786-0; assay: Antiproliferative activity against human 786-0 cells assessed as inhibition of cell growth incubated for 72 hrs by SRB method; assay type: functional, cell-based; conditions: 786-0, 72 h
[25] = Microsomal stability in dog liver microsomes assessed as intrinsic clearance at 50 uM preincubated for 5 mins with NADPH followed by compound addition and measured upto 60 mins by LC-MS/MS analysis; assay type: ADME, Canis lupus familiaris, Microsome; conditions: read-out: CLH
[26] = Cmax in Beagle dog at 20 mg/kg, ig measured upto 96 hrs by LC-MS/MS analysis; assay type: ADME, organism-based, Canis lupus familiaris; parameters: route […], dose 20 mg/kg, time <=96; conditions: in vivo, po
[27] = Tmax in Sprague-Dawley rat at 15 mg/kg, ig measured upto 72 hrs by LC-MS/MS analysis; assay type: ADME, organism-based; conditions: in vivo, po
[28] = Half life in Sprague-Dawley rat at 2 mg/kg, iv measured upto 24 hrs by LC-MS/MS analysis; assay type: ADME, organism-based; conditions: in vivo
[29] = molecular target: Cytochrome P450 2C9 (Homo sapiens, UniProt P11712); assay: Inhibition of CYP2C9 (unknown origin); assay type: ADME
[30] = Toxicity in mouse assessed as maximum toxicity dose; conditions: in vivo
[31] = AUC(0 to t) in Sprague-Dawley rat at 2 mg/kg, iv measured upto 24 hrs by LC-MS/MS analysis; assay type: ADME, organism-based; parameters: route intravenous, dose 2 mg/kg, time <=24; conditions: in vivo
[32] = molecular target: Tyrosine-protein kinase ABL1 (Homo sapiens, UniProt P00519); assay: Inhibition of ABL (unknown origin)
[33] = molecular target: CYP2C19 (Homo sapiens, UniProt P33261); assay: Inhibition of CYP2C19 (unknown origin) at 100 uM; assay type: ADME
[34] = molecular target: Ribosomal protein S6 kinase alpha-5 (Homo sapiens, UniProt O75582); assay: Inhibition of MSK1 (unknown origin)
[35] = molecular target: Cytochrome P450 1A2 (Homo sapiens, UniProt P05177); assay: Inhibition of CYP1A2 (unknown origin); assay type: ADME
[36] = molecular target: Tyrosine-protein kinase JAK2 (Homo sapiens, UniProt O60674); assay: Inhibition of JAK2 (unknown origin)
[37] = tested on: Bel-7402; assay: Antiproliferative activity against human Bel-7402 cells assessed as inhibition of cell growth incubated for 72 hrs by SRB method; assay type: functional, cell-based; conditions: Bel-7402, 72 h
[38] = molecular target: RAC-gamma serine/threonine-protein kinase (Homo sapiens, UniProt Q9Y243); assay: Inhibition of AKT3 (unknown origin)
[39] = Toxicity in Sprague-Dawley rat assessed as change in biochemical parameters at 25 to 75 mg/kg administered daily for 4 weeks; assay type: organism-based; conditions: in vivo, 672 h, dose 25-75 mg/kg
[40] = Antiproliferative activity against human HPDE6c7 cells assessed as inhibition of cell growth incubated for 72 hrs by SRB method; assay type: cell-based; conditions: HPDE6c7, 72 h
[41] = Drug metabolism in po dosed Sprague-Dawley rat feces assessed as M1 metabolite formation measured upto 24 hrs by UPLC-TOF-MS/MS analysis; assay type: ADME, organism-based; conditions: in vivo
[42] = Drug metabolism in po dosed Sprague-Dawley rat urine assessed as M4 metabolite formation measured upto 72 hrs by UPLC-TOF-MS/MS analysis; assay type: ADME, organism-based; conditions: in vivo
[43] = molecular target: Serine/threonine-protein kinase Chk1 (Homo sapiens, UniProt O14757); assay: Inhibition of CHK1 (unknown origin)
[44] = Toxicity in Sprague-Dawley rat assessed as change in cell population at 25 to 75 mg/kg administered daily for 4 weeks; assay type: organism-based; conditions: in vivo, 672 h, dose 25-75 mg/kg

Chain of Cytochrome P450 2C9 (P11712 whole entry): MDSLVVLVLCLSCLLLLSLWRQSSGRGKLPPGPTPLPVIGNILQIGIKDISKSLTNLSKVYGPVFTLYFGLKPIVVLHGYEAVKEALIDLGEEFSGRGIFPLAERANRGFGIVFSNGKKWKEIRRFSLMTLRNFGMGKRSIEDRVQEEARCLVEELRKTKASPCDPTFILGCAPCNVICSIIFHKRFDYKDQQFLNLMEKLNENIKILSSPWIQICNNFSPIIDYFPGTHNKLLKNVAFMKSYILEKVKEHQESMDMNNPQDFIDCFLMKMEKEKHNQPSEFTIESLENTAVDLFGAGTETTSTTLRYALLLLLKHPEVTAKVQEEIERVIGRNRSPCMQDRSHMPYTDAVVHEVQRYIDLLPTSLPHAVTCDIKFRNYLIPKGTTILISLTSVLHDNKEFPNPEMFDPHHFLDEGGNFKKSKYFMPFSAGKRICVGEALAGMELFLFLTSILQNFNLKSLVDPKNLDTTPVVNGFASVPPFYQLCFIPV
Chain of Tyrosine-protein kinase JAK2 (O60674 whole entry): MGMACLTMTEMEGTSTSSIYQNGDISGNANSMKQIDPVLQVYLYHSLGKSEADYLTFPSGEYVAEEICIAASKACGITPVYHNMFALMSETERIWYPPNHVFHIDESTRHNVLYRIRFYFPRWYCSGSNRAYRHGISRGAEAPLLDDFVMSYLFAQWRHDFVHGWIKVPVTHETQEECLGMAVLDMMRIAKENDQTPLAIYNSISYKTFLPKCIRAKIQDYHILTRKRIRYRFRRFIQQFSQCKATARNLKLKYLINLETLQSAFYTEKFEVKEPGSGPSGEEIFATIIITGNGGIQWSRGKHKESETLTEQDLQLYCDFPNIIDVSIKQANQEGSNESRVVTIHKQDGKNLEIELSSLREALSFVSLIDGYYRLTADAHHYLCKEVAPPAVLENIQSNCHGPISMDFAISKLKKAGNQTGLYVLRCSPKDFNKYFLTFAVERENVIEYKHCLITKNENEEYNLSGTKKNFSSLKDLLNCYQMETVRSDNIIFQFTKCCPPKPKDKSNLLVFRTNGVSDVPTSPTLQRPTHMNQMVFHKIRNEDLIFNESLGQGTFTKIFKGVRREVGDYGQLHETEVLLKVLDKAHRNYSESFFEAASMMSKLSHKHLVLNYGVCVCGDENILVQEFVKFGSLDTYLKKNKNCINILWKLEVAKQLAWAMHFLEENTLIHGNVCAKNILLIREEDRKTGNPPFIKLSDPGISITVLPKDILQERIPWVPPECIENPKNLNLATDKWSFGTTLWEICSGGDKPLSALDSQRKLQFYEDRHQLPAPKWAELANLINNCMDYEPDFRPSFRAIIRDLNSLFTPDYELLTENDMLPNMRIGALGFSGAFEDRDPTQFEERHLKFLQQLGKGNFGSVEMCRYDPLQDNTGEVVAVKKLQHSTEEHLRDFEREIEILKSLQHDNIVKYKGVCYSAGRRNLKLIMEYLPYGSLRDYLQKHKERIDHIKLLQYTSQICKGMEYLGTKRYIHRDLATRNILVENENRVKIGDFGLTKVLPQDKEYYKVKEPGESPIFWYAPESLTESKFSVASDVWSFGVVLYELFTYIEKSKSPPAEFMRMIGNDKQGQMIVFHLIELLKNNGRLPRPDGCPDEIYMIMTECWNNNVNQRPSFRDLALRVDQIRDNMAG
Chain of Cytochrome P450 2C8 (P10632 whole entry): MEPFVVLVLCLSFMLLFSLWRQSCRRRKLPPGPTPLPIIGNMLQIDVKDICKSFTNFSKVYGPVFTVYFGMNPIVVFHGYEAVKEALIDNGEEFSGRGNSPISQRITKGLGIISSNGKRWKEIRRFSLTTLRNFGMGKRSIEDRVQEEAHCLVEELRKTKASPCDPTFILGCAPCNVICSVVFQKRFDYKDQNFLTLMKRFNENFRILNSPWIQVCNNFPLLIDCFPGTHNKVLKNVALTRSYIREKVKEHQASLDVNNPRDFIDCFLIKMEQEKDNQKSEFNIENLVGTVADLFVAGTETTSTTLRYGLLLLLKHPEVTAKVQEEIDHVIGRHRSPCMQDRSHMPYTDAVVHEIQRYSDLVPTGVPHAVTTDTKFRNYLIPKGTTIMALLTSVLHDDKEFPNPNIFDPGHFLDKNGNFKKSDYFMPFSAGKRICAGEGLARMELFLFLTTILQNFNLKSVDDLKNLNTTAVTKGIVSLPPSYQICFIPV
Chain of Cytochrome P450 1A2 (P05177 whole entry): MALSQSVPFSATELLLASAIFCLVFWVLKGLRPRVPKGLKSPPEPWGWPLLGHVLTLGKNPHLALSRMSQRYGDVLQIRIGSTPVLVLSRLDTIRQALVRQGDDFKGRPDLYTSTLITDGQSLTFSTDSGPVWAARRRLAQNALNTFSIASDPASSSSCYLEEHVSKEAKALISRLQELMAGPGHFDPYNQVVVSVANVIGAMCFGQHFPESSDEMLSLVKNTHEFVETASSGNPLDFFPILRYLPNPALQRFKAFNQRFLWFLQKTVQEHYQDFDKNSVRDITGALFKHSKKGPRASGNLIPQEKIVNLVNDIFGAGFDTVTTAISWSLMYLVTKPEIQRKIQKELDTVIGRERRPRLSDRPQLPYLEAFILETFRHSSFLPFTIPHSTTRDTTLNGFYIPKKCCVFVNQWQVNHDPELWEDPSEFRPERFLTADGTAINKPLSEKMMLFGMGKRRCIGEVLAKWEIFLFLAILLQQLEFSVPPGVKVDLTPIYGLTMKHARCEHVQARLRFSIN
Chain of Serine/threonine-protein kinase Chk1 (O14757 whole entry): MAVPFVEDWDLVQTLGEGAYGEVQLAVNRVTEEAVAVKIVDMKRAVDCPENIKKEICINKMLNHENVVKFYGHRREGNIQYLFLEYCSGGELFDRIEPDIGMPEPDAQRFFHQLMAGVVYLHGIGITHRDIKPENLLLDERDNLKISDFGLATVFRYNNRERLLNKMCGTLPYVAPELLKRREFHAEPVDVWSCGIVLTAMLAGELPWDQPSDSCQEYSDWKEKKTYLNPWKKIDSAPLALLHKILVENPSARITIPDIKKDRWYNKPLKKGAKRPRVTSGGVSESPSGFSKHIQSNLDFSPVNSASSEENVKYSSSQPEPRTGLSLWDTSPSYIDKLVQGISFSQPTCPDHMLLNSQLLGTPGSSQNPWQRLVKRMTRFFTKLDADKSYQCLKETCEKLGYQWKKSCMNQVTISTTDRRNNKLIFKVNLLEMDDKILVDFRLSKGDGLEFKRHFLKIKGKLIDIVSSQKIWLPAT
Chain of Aurora kinase A (O14965 whole entry): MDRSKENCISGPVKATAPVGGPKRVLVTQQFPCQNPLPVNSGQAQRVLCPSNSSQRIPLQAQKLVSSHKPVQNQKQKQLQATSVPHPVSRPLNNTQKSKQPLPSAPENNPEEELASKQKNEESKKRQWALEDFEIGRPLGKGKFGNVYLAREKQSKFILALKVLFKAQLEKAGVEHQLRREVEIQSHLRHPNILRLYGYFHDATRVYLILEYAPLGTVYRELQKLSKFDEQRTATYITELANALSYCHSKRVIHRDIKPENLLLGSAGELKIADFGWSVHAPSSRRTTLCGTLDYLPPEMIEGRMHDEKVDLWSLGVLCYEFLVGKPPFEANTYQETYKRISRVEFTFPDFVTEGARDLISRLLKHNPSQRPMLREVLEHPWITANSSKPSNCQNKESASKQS
Chain of RAC-gamma serine/threonine-protein kinase (Q9Y243 whole entry): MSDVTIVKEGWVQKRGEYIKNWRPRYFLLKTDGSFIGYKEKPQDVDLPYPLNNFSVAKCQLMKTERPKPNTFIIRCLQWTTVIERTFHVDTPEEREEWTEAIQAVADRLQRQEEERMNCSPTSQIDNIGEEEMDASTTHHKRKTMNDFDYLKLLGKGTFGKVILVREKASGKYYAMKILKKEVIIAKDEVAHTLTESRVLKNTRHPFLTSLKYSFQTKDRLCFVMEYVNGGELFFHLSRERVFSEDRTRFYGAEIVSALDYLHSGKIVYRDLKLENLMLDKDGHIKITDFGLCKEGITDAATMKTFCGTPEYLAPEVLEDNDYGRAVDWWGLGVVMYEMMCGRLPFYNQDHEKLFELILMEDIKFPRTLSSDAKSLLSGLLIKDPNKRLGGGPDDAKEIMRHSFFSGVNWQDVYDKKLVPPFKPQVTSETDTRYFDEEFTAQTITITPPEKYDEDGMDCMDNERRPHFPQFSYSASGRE
Chain of Ribosomal protein S6 kinase alpha-5 (O75582 whole entry): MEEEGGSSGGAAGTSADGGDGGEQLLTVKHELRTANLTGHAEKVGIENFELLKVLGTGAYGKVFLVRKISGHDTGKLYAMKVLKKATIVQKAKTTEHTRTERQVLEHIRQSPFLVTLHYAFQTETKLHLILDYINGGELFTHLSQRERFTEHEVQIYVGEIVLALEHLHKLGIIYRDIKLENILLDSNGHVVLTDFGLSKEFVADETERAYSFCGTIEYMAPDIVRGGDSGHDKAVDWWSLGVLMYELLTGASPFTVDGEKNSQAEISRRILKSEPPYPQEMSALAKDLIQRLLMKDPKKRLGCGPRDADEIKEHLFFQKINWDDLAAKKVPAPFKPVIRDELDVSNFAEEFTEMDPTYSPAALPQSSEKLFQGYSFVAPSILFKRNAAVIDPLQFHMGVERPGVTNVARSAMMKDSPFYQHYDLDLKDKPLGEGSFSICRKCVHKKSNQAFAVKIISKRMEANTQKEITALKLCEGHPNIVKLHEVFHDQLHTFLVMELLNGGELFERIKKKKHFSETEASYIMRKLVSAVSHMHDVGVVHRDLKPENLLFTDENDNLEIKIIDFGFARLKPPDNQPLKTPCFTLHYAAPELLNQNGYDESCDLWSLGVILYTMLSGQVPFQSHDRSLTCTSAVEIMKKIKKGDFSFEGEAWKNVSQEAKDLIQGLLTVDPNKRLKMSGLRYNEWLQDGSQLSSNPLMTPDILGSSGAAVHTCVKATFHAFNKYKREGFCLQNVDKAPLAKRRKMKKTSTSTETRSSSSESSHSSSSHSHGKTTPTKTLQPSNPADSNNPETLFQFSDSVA

Structure (SMILES): Cl.Cn1nccc1-c1ccc(C(=O)N[C@@H]2CNCC[C@H]2c2ccc(F)c(F)c2)c(F)c1
- IC50 [1]: 9.26 µM
- Activity [2]: Non-Toxic
- IC50 [3]: 0.61 µM
- IC50 [4]: 0.011 µM
- IC50 [5]: 7.76 µM
- Activity [6]: Non-Toxic
- IC50 [7]: 6.56 µM
- IC50 [8]: 5.4 µM
- IC50 [9]: 15.2 µM
- IC50 [10]: 0.68 µM
- Activity [11]: Non-Toxic
- half-life at 50 µM [12]: 5.6 h
- IC50 [13]: > 10 µM
- Activity [14]: Non-Toxic
- Drug metabolism [15]: Metabolite_Detected
- Activity [16]: Non-Toxic
- Activity [17]: Non-Toxic
- IC50 [18]: 2.5 µM
- half-life at 50 µM [19]: 1.7 h
- Activity [20]: Non-Toxic
- IC50 [21]: 16.4 µM
- IC50 [22]: > 100 µM
- IC50 [23]: 4.71 µM
- IC50 [24]: 8.6 µM
- microsomal CLint at 50 µM [25]: 4.1 µL/min/mg
- Cmax [26]: 906 ng/mL
- Tmax [27]: 1.67 h
- half-life [28]: 6.24 h
- IC50 [29]: > 100 µM
- MTD [30]: 150 mg/kg
- AUC(0-t) at 24 h [31]: 459 ng·h/mL
- IC50 [32]: > 10 µM
- inhibition at 100 µM [33]: 65%
- IC50 [34]: > 10 µM
- IC50 [35]: > 100 µM
- IC50 [36]: > 10 µM
- IC50 [37]: 26.6 µM
- IC50 [38]: 0.028 µM
- Activity [39]: Non-Toxic
- IC50 [40]: 16.1 µM
- Drug metabolism [41]: Metabolite_Detected
- Drug metabolism [42]: Metabolite_Detected
- IC50 [43]: > 10 µM
- Activity [44]: Non-Toxic
